Laboratory results taken from US20260200911A1, “NOVEL COMPOUNDS” (Neurosterix Pharma Sarl., priority 2022, published 2026).

Biological target: T1, human mGlu7 (Homo sapiens, UniProt Q14831)
T1 construct: expressed in transfected cells
Assay: Fluorescent cell based Ca2+ mobilization assay (FLIPR) on HEK-293 cells expressing human mGlu7
Conditions: HEK-293 cells expressing hmGlu7; inhibition of EC80 L-AP4 response; mean of at least three independent experiments in duplicate; read-out: Ca^2+ Flux (mean IC50)
Source text: mGlu7 Assay on HEK-Expressing Human mGlu7
The cDNA encoding the human metabotropic glutamate 7 receptor (hmGlu7), (accession number NM_181874.2, NCBI Nucleotide database browser), was subcloned into an expression vector containing also the hygromycin resistance gene. In parallel, the cDNA encoding a G protein allowing redirection of the activation signal to intracellular calcium flux was subcloned into a different expression vector containing also the Puromycin resistance gene. Transfection of both these vectors into HEK293 cells with PolyFect reagent (Qiagen) according to supplier's protocol, and hygromycin and puromycin treatment allowed selection of antibiotic resistant cells which had integrated stably one or more copies of the plasmids. Positive cellular clones expressing hmGlu7 were identified in a functional assay measuring changes in calcium fluxes in response to glutamate and L-AP4 or known mGlu7 orthosteric antagonists.
HEK-293 cells expressing hmGlu7 were maintained in media containing DMEM, Fetal Bovine Serum (10%), Glutamax™ (2 mM), penicillin (100 units/mL), streptomycin (100 μg/mL), geneticin (100 μg/mL) and hygromycin-B (40 μg/mL) and puromycin (1 μg/mL) at 37° C. with 5% CO2 in a humidified atmosphere.
Human mGlu7 HEK-293 cells were plated out 24 hours prior to a fluorescent cell-based calcium mobilization assay using FLIPR^384 assay (Molecular Device, Sunnyvale, CA, USA) in black-walled, clear-bottomed, poly-L-ornithine-coated 384-well plates at a density of 25,000 cells/well in a glutamine/glutamate free DMEM medium containing fetal bovine serum (10%), penicillin (100 units/mL), streptomycin (100 μg/mL) and doxycyline (1 μg/ml) at 37° C. with 5% CO2 in a humidified atmosphere.
On the day of the assay, the medium was aspirated and the cells were loaded with a 3 μM solution of Fluo4-AM (LuBioScience, Lucerne, Switzerland) in 0.03% pluronic acid. After 1 hour at 37° C./5% CO2, the non incorporated dye was removed by washing cell plate with the assay buffer. All assays were performed in a pH 7.4 buffered-solution containing 20 mM HEPES, 143 mM NaCl, 6 mM KCl, 1 mM MgSO4, 1 mM CaCl2, 0.125 mM sulfinpyrazone and 0.1% glucose.
After 10 s of basal fluorescence recording, various concentrations of the compounds of the invention were added to the cells. Changes in fluorescence levels were first monitored for 180 s in order to detect any agonist activity of the compounds. Then the cells were stimulated by an EC80 L-AP4 concentration for an additional 110 s in order to measure inhibiting activities of the compounds of the invention. EC80 L-AP4 concentration is the concentration giving 80% of the maximal glutamate response.
The concentration-response curves of L-AP4 or representative compounds of the present invention were generated using the Prism GraphPad software (Graph Pad Inc, San Diego, USA). The curves were fitted to a four-parameter logistic equation:
(Y=Bottom+(Top−Bottom)/(1+10^((Log IC50−X)*Hill Slope)
allowing determination of IC50 values.
The Table 3 below represents the mean IC50 obtained from at least three independent experiments of selected molecules performed in duplicate.

T1 sequence (Q14831 35-922 isoform Q14831-2 limits assumed): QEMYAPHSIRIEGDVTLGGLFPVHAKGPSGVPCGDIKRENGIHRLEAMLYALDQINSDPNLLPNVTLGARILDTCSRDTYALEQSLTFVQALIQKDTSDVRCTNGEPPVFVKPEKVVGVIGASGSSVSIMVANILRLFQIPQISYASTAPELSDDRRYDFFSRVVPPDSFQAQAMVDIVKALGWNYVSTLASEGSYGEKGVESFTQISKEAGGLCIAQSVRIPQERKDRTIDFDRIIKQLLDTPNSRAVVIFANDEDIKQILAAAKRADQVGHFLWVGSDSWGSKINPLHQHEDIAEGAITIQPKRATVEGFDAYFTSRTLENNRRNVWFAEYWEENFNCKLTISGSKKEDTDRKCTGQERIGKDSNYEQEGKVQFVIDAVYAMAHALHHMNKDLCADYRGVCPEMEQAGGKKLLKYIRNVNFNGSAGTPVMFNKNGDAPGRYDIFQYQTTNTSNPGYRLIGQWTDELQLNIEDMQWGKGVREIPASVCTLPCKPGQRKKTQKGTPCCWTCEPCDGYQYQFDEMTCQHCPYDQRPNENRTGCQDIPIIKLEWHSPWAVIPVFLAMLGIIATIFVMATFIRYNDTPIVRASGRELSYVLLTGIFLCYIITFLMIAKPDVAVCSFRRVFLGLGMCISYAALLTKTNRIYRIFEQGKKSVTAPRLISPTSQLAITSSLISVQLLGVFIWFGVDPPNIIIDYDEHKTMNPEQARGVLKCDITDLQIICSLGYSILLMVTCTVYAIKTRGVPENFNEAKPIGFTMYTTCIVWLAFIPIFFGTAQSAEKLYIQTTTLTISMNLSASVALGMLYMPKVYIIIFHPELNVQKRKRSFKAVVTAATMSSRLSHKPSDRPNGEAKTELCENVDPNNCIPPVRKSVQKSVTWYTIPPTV

| SMILES | IC50 |
| --- | --- |
| O=c1n(-c2ccccn2)nc2n1CC(c1cccc(OC3CC3)c1)CC2 (stereo not shown) [Compound 1-14, 6-(3-cyclopropoxyphenyl)-2-(pyridin-2-yl)-5,6,7,8-tetrahydro-[1,2,4]triazolo[4,3-a]pyridin-3(2H)-one] | 100 to 1000 nM |
| COc1cccc(-c2ccc3nn(-c4ncccn4)c(=O)n3c2)c1C [Compound 1-11, 6-(3-methoxy-2-methylphenyl)-2-(pyrimidin-2-yl)-[1,2,4]triazolo[4,3-a]pyridin-3(2H)-one] | 100 to 1000 nM |
| O=c1n(-c2ccccn2)nc2ccc(-c3cccc(N4CCC4)c3)cn12 [Compound 1-4, 6-(3-(azetidin-1-yl)phenyl)-2-(pyridin-2-yl)-[1,2,4]triazolo[4,3-a]pyridin-3(2H)-one] | 100 to 1000 nM |
| Cc1ccc(C2CCc3nn(-c4ccccn4)c(=O)n3C2)c(C)c1 (stereo not shown) [Compound 1-3, 6-(2,4-dimethylphenyl)-2-(pyridin-2-yl)-5,6,7,8-tetrahydro-[1,2,4]triazolo[4,3-a]pyridin-3(2H)-one] | < 100 nM |
| COc1ccc(-c2ccc3nn(-c4ccccn4)c(=O)n3c2)cc1 [Compound 1-15, 6-(4-methoxyphenyl)-2-(pyridin-2-yl)-[1,2,4]triazolo[4,3-a]pyridin-3(2H)-one] | 1000 to 10000 nM |
| COc1cccc(-c2ccc3nn(-c4ccccn4)c(=O)n3c2)c1C [Compound 1-9, 6-(3-methoxy-2-methylphenyl)-2-(pyridin-2-yl)-[1,2,4]triazolo[4,3-a]pyridin-3(2H)-one] | < 100 nM |
| COc1ccccc1-c1ccc2nn(-c3ccccn3)c(=O)n2c1 [Compound 1-19, 6-(2-methoxyphenyl)-2-(pyridin-2-yl)-[1,2,4]triazolo[4,3-a]pyridin-3(2H)-one] | 1000 to 10000 nM |
| COc1cccc(C2CCc3nn(-c4ccccn4)c(=O)n3C2)c1C (stereo not shown) [Compound 1-10, 6-(3-methoxy-2-methylphenyl)-2-(pyridin-2-yl)-5,6,7,8-tetrahydro-[1,2,4]triazolo[4,3-a]pyridin-3(2H)-one] | 100 to 1000 nM |
| Cc1ccc(-c2ccc3nn(-c4ncccn4)c(=O)n3c2)c(C)c1 [Compound 1-2, 6-(2,4-dimethylphenyl)-2-(pyrimidin-2-yl)-[1,2,4]triazolo[4,3-a]pyridin-3(2H)-one] | 100 to 1000 nM |
| COc1cccc(-c2ccc3nn(-c4ncccn4)c(=O)n3c2)c1 [Compound 1-7, 6-(3-methoxyphenyl)-2-(pyrimidin-2-yl)-[1,2,4]triazolo[4,3-a]pyridin-3(2H)-one] | 1000 to 10000 nM |
| Cc1ccc(-c2ccc3nn(-c4ccccn4)c(=O)n3c2)c(C)c1 [Compound 1-1, 6-(2,4-dimethylphenyl)-2-(pyridin-2-yl)-[1,2,4]triazolo[4,3-a]pyridin-3(2H)-one] | < 100 nM |
| O=c1n(-c2ncccn2)nc2ccc(-c3cccc(OC4CC4)c3)cn12 [Compound 1-12, 6-(3-cyclopropoxyphenyl)-2-(pyrimidin-2-yl)-[1,2,4]triazolo[4,3-a]pyridin-3(2H)-one] | 100 to 1000 nM |
| Cc1ccc(C2CCc3nn(-c4ccccn4)c(=O)n3C2)c(C)c1 (single isomer, unassigned; (+)) [Compound 1-18, (+)6-(2,4-dimethylphenyl)-2-(pyridin-2-yl)-5,6,7,8-tetrahydro-[1,2,4]triazolo[4,3-a]pyridin-3(2H)-one] | < 100 nM |
| COc1ccc(C2CCc3nn(-c4ccccn4)c(=O)n3C2)c(C)c1 (stereo not shown) [Compound 1-22, 6-(4-methoxy-2-methylphenyl)-2-(pyridin-2-yl)-5,6,7,8-tetrahydro-[1,2,4]triazolo[4,3-a]pyridin-3(2H)-one] | 100 to 1000 nM |
| COc1ccc(C2CCc3nn(-c4ccccn4)c(=O)n3C2)cc1 (stereo not shown) [Compound 1-16, 6-(4-methoxyphenyl)-2-(pyridin-2-yl)-5,6,7,8-tetrahydro-[1,2,4]triazolo[4,3-a]pyridin-3(2H)-one] | 1000 to 10000 nM |
| COc1ccc(-c2ccc3nn(-c4ncccn4)c(=O)n3c2)c(C)c1 [Compound 1-21, 6-(4-methoxy-2-methylphenyl)-2-(pyrimidin-2-yl)-[1,2,4]triazolo[4,3-a]pyridin-3(2H)-one] | 1000 to 10000 nM |
| COc1ccc(-c2ccc3nn(-c4ccccn4)c(=O)n3c2)c(C)c1 [Compound 1-20, 6-(4-methoxy-2-methylphenyl)-2-(pyridin-2-yl)-[1,2,4]triazolo[4,3-a]pyridin-3(2H)-one] | 100 to 1000 nM |
| O=c1n(-c2ccccn2)nc2ccc(-c3cccc(OC4CC4)c3)cn12 [Compound 1-13, 6-(3-cyclopropoxyphenyl)-2-(pyridin-2-yl)-[1,2,4]triazolo[4,3-a]pyridin-3(2H)-one] | 100 to 1000 nM |
| COc1cccc(-c2ccc3nn(-c4ccccn4)c(=O)n3c2)c1 [Compound 1-5, 6-(3-methoxyphenyl)-2-(pyridin-2-yl)-[1,2,4]triazolo[4,3-a]pyridin-3(2H)-one] | 100 to 1000 nM |
| COc1cccc(C2CCc3nn(-c4ccccn4)c(=O)n3C2)c1 (stereo not shown) [Compound 1-8, 6-(3-methoxyphenyl)-2-(pyridin-2-yl)-5,6,7,8-tetrahydro-[1,2,4]triazolo[4,3-a]pyridin-3(2H)-one] | 1000 to 10000 nM |
| O=c1n(-c2ncccn2)nc2ccc(-c3cccc(N4CCC4)c3)cn12 [Compound 1-6, 6-(3-(azetidin-1-yl)phenyl)-2-(pyrimidin-2-yl)-[1,2,4]triazolo[4,3-a]pyridin-3(2H)-one] | 100 to 1000 nM |
| Cc1ccc(C2CCc3nn(-c4ccccn4)c(=O)n3C2)c(C)c1 (single isomer, unassigned; (-)) [Compound 1-17, (−)6-(2,4-dimethylphenyl)-2-(pyridin-2-yl)-5,6,7,8-tetrahydro-[1,2,4]triazolo[4,3-a]pyridin-3(2H)-one] | 1000 to 10000 nM |
